Test results as given in US7776848B2, “Spirocyclic cyclohexane compounds” (Gruenenthal GmbH, priority 2004, dated 2010).
Where a name gives a salt, the structure may show the parent alone.

Key:
[1] = target: T1, NA uptake (noradrenaline reuptake), synaptosomes from hypothalamus of male rat brains (Rattus norvegicus, UniProt Q63380); assay: Noradrenaline reuptake inhibition (NA uptake inhibition) in rat brain synaptosomes; format: biochemical
T1 construct: synaptosomes are freshly isolated from areas of rat brain; from tissue; host or cells: synaptosomes (P2 fraction) from hypothalamus of male rat brains
Protocol: b) Studies of Noradrenaline Reuptake Inhibition (NA Uptake Inhibition)
In order to be able to carry out these in vitro studies, synaptosomes are freshly isolated from areas of rat brain. A so-called “P2” fraction is used in each case, which is prepared according to the procedure of Gray and Whittaker (E. G. Gray and V. P. Whittaker (1962) J. Anat. 76, 79-88). For NA uptake, these vesicular particles are isolated from the hypothalamus of male rat brains. A detailed description of the method can be found in the literature (M. Ch. Frink, H.-H. Hennies, W. Englberger, M. Haurand and B. Wilffert (1996) Arzneim.-Forsch./Drug Res. 46 (III), 11, 1029-1036).

human μ-opiate receptor = target: T2, human μ-opiate receptor (Homo sapiens, UniProt P35372); assay: Measurement of μ binding ([3H]-naloxone displacement, SPA, CHO-K1 membrane preparation); details: 1.5 h; % inhibition of specific [3H]-naloxone binding at 1 μM test substance
T2 construct: purchased NEN, Zaventem, Belgium RB-HOM; host or cells: CHO-K1 cells (membrane preparation)
Protocol: c) Measurement of μ Binding
The receptor affinity for the human μ-opiate receptor was determined in a homogeneous batch on microtitre plates. To that end, serial dilutions of the substituted spirocyclic cyclohexane derivative to be tested were incubated for 90 minutes at room temperature with a receptor membrane preparation (15-40 μg of protein per 250 μl of incubation batch) of CHO-K1 cells, which express the human μ-opiate receptor (RB-HOM receptor membrane preparation from NEN, Zaventem, Belgium), in the presence of 1 nmol/l of the radioactive ligand [^3H]-naloxone (NET719, NEN, Zaventem, Belgium) and 1 mg of WGA-SPA beads (wheatgerm agglutinin SPA beads from Amersham/Pharmacia, Freiburg, Germany) in a total volume of 250 μl. The incubation buffer used was 50 mmol/l of Tris-HCl supplemented with 0.05 wt. % sodium azide and with 0.06 wt. % bovine serum albumin. In order to determine non-specific binding, 25 μmol/l of naloxone were additionally added. When the ninety-minute incubation time was complete, the microtitre plates were centrifuged off for 20 minutes at 1000 g and the radioactivity was measured in a β-counter (Microbeta-Trilux, PerkinElmer Wallac, Freiburg, Germany). The percentage displacement of the radioactive ligand from its binding to the human μ-opiate receptor at a concentration of the test substances of 1 μmol/l was determined and stated as the percentage inhibition (% inhibition) of specific binding. In some cases, on the basis of the percentage displacement by different concentrations of the compounds of formula I to be tested, IC50 inhibitory concentrations, which effect 50% displacement of the radioactive ligand, were calculated. Ki values for the test substances were obtained by conversion by means of the Cheng-Prusoff equation.

[2] = target: T3, 5HT uptake (serotonin reuptake), synaptosomes from hypothalamus of male rat brains (Rattus norvegicus, UniProt P31652); assay: Serotonin reuptake inhibition (5HT uptake inhibition) in rat brain synaptosomes; format: biochemical
T3 construct: synaptosomes are freshly isolated from areas of rat brain; from tissue; host or cells: synaptosomes (P2 fraction) from hypothalamus of male rat brains
Protocol: Biological Testing a) Studies of Serotonin Reuptake Inhibition (5HT Uptake Inhibition)
In order to be able to carry out these in vitro studies, synaptosomes are freshly isolated from areas of rat brain. A so-called “P2” fraction is used in each case, which is prepared according to the procedure of Gray and Whittaker (E. G. Gray and V. P. Whittaker (1962) J. Anat. 76, 79-88). For 5HT uptake, these vesicular particles are isolated from the hypothalamus of male rat brains. A detailed description of the method can be found in the literature (M. Ch. Frink, H.-H. Hennies, W. Englberger, M. Haurand and B. Wilffert (1996) Arzneim.-Forsch./Drug Res. 46 (III), 11, 1029-1036).

T1 sequence (Q63380 1-617): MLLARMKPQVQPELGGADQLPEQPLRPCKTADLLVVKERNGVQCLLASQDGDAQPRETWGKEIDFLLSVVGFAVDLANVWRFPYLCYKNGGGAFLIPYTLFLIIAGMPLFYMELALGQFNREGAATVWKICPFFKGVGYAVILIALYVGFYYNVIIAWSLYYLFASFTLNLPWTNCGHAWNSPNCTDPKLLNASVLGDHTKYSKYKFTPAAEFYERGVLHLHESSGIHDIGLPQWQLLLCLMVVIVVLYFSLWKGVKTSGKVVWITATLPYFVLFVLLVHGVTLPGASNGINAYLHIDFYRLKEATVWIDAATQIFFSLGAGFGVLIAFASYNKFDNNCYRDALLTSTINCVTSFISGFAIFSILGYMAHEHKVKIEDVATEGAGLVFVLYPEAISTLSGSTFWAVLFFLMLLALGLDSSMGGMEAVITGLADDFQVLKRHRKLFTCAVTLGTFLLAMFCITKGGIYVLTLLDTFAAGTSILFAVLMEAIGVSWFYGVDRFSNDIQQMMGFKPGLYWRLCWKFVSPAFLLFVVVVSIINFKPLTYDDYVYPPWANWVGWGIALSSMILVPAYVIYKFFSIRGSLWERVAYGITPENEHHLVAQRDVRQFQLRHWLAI
T2 sequence (P35372 whole entry): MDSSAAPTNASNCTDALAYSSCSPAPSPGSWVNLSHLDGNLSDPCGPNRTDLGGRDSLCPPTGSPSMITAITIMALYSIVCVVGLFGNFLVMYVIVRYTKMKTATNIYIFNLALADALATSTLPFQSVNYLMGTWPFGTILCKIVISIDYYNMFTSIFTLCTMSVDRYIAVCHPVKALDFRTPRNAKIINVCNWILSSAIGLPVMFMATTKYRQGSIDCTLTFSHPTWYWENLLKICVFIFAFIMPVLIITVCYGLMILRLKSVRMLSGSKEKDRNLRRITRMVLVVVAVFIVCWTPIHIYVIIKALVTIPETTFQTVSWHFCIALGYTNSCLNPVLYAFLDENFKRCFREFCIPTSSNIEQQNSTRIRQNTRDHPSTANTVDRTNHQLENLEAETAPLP
T3 sequence (P31652 whole entry): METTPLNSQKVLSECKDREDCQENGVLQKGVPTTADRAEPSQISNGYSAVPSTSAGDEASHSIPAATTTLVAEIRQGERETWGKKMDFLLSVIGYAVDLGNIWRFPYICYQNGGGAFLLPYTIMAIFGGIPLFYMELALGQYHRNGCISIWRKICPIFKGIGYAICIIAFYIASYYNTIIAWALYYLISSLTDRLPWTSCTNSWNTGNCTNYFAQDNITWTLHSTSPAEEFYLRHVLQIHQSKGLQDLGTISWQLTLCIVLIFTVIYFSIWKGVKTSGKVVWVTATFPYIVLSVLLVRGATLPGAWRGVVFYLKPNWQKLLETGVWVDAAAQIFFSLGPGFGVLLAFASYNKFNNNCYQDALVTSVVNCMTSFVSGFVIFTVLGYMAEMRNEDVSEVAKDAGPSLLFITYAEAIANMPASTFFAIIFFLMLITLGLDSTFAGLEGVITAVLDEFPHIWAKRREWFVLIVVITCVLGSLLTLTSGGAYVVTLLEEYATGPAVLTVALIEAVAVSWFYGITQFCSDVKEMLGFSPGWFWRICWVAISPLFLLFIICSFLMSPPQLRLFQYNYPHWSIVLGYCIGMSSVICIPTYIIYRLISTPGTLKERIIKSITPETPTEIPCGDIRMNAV

| Compound | inhibition at 10 µM [1] | inhibition at 1 µM (human μ-opiate receptor) | inhibition at 10 µM [2] |
| --- | --- | --- | --- |
| COc1cccc(C2(O)CCC3(CC2CN(C)C)NCCc2c3[nH]c3ccccc23)c1 (stereo not shown) [Example 1, 1,1-(2-(Dimethylaminomethyl)-3-hydroxy-3-(3-methoxyphenyl)pentamethylene)-3,4-dihydro-1H-2,9-diazafluorene dihydrochloride] | 43% | 40% | 44% |
| COc1cccc(C2(O)CCC3(CC2CN(C)C)c2[nH]c4ccccc4c2CCN3C(C)=O)c1 (stereo not shown) [Example 2, 1,1-(2-(Dimethylaminomethyl)-3-hydroxy-3-(3-methoxyphenyl)pentamethylene)-2-acetyl-3,4-dihydro-1H-2,9-diazafluorene hydrochloride] |  | 65% |  |
| CN(C)CC1CC2(CCC1(O)c1ccccc1)OCCc1c2[nH]c2ccccc12 (stereo not shown) [Example 4, 1,1-(2-(Dimethylaminomethyl)-3-hydroxy-3-phenyl-pentamethylene)-1,3,4,9-tetrahydro-pyrano[3,4-b]indole sesquicitrate] |  | 74% | 84% |
| CN(C)CC1CC2(CCC1(O)c1ccccc1)OCCc1c2oc2ccccc12 (stereo not shown) [Example 5, 1,1-(2-(Dimethylaminomethyl)-3-hydroxy-3-phenyl-pentamethylene)-1,3,4,9-tetrahydro-pyrano[3,4-b]benzofuran citrate] | 51% | 58% | 84% |
| CN(C)CC1CC2(CCC1(O)c1cccc(F)c1)OCCc1c2oc2ccccc12 (stereo not shown) [Example 8, 1,1-(2-(Dimethylaminomethyl)-3-hydroxy-3-(3-fluorophenyl)-pentamethylene)-1,3,4,9-tetrahydro-pyrano[3,4-b]benzofuran citrate] | 66% | 73% | 88% |
| Cc1ccccc1C1(O)CCC2(CC1CN(C)C)OCCc1c2oc2ccccc12 (stereo not shown) [Example 12, 1,1-(2-(Dimethylaminomethyl)-3-hydroxy-3-(2-methylphenyl)-pentamethylene)-1,3,4,9-tetrahydro-pyrano[3,4-b]benzofuran citrate] | 41% | 56% | 68% |
| CN(C)CC1CC2(CCC1(O)c1cccc(F)c1)OCCc1c2[nH]c2ccccc12 (stereo not shown) [Example 27, 1,1-(2-(Dimethylaminomethyl)-3-hydroxy-3-(3-fluorophenyl)-pentamethylene)-1,3,4,9-tetrahydro-pyrano[3,4-b]indole hydrochloride] |  | 64% | 83% |
| CN(C)CC1CC2(CCC1(O)c1ccccc1)NCCc1c2[nH]c2ccccc12 (stereo not shown) [Example 28, 1,1-(2-(Dimethylaminomethyl)-3-hydroxy-3-phenyl-pentamethylene)-3,4-dihydro-1H-2,9-diazafluorene citrate] |  | 57% |  |
| Cc1ccccc1C1(O)CCC2(CC1CN(C)C)NCCc1c2[nH]c2cc(F)ccc12 (stereo not shown) [Example 32, 1,1-(2-(Dimethylaminomethyl)-3-hydroxy-3-(2-methylphenyl)-pentamethylene)-7-fluoro-3,4-dihydro-1H-2,9-diazafluorene citrate] | 38% |  | 75% |
| CN(C)CC1CC2(CCC1(O)c1ccc(C(F)(F)F)cc1)NCCc1c2[nH]c2cc(F)ccc12 (stereo not shown) [Example 33, 1,1-(2-(Dimethylaminomethyl)-3-hydroxy-3-(4-trifluoromethylphenyl)-pentamethylene)-7-fluoro-3,4-dihydro-1H-2,9-diazafluorene citrate] | 68% |  | 78% |
| CSc1ccc(C2(O)CCC3(CC2CN(C)C)NCCc2c3[nH]c3cc(F)ccc23)cc1 (stereo not shown) [Example 34, 1,1-(2-(Dimethylaminomethyl)-3-hydroxy-3-(4-methylthiophenyl)-pentamethylene)-7-fluoro-3,4-dihydro-1H-2,9-diazafluorene citrate] | 57% | 54% | 65% |
